Assay results reported in ChEMBL document CHEMBL1201862, “PubChem BioAssay data set” (2004).
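Test compounds were applied to cells in 96-well plates for 48 hours at 5 doses. GI50: concentration for 50% inhibition of growth.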 Active and inactive are the calls of the source. Rule as the data show it: active = GI50 up to about 1.1 µM and inactive = higher. Residues, ends and D or L forms follow the SMILES beside them. *: point of attachment. Boc = CC(C)(C)OC(=O)*; OBn = c1ccc(CO*)cc1

Experiments:
Test in all cases: NCI tumour cell line growth inhibition, 48 h
A498 = test system: A498
HCT-116 = test system: HCT-116
HOP-62 = test system: HOP-62
HOP-92 = test system: HOP-92
IGROV-1 = test system: IGROV-1
OVCAR-4 = test system: OVCAR-4
OVCAR-8 = test system: OVCAR-8
RXF 393 = test system: RXF 393
SF-539 = test system: SF-539
SK-MEL-28 = test system: SK-MEL-28
SK-MEL-2 = test system: SK-MEL-2
SNB-19 = test system: SNB-19
SNB-75 = test system: SNB-75
SR = test system: SR
SW-620 = test system: SW-620
U-251 = test system: U-251
UACC-257 = test system: UACC-257
UO-31 = test system: UO-31
DU-145 = test system: DU-145
T47D = test system: T47D

Structure (SMILES) | GI50 (A498) | GI50 (HCT-116) | GI50 (HOP-62) | GI50 (HOP-92) | GI50 (IGROV-1) | GI50 (OVCAR-4) | GI50 (OVCAR-8) | GI50 (RXF 393) | GI50 (SF-539) | GI50 (SK-MEL-28) | GI50 (SK-MEL-2) | GI50 (SNB-19) | GI50 (SNB-75) | GI50 (SR) | GI50 (SW-620) | GI50 (U-251) | GI50 (UACC-257) | GI50 (UO-31) | GI50 (DU-145) | GI50 (T47D)
COc1ccc(C(=O)C2=NON3OC23C(=O)c2ccc(OC)cc2)cc1 (configuration not stated) | 13.7 µM (inactive) | 7.26 µM (inactive) | > 100 µM (inactive) | 2.59 µM (inactive) | 11.6 µM (inactive) | 5.74 µM (inactive) | 8.77 µM (inactive) | 4.09 µM (inactive) | 10.3 µM (inactive) | 17.9 µM (inactive) | 19.5 µM (inactive) | 15.9 µM (inactive) | 24.7 µM (inactive) | 2.56 µM (inactive) | 3.31 µM (inactive) | 16 µM (inactive) | 18.9 µM (inactive) | 14.1 µM (inactive) |  | 
O=C1CC2CCCC23CC2(CCN13)OCCO2 (configuration not stated) | > 100 µM (inactive) | > 100 µM (inactive) | > 100 µM (inactive) | > 100 µM (inactive) | > 100 µM (inactive) | > 100 µM (inactive) | > 100 µM (inactive) | > 100 µM (inactive) | > 100 µM (inactive) | > 100 µM (inactive) | > 100 µM (inactive) | > 100 µM (inactive) | > 100 µM (inactive) | > 100 µM (inactive) | > 100 µM (inactive) | > 100 µM (inactive) | > 100 µM (inactive) | > 100 µM (inactive) |  | 
COc1ccc(CCc2cc(OC)cc(OC)c2)cc1 | 17 µM (inactive) | 24.3 µM (inactive) | 16.7 µM (inactive) | 38.3 µM (inactive) | 43 µM (inactive) | 27 µM (inactive) | 66.4 µM (inactive) | 18 µM (inactive) | 31.6 µM (inactive) | 29.6 µM (inactive) | 11.1 µM (inactive) | > 100 µM (inactive) | 32.9 µM (inactive) | 9.71 µM (inactive) | 5.93 µM (inactive) | 31.6 µM (inactive) | 51.4 µM (inactive) | 52.7 µM (inactive) |  | 
COc1cc2c(c(OC)c1OC)C(=O)[C@H](O)[C@H]2NC(N)=O |  | 79.4 µM (inactive) | > 100 µM (inactive) |  | 49.5 µM (inactive) |  | > 100 µM (inactive) | 47.8 µM (inactive) | > 100 µM (inactive) | > 100 µM (inactive) |  | > 100 µM (inactive) | 23.3 µM (inactive) |  | > 100 µM (inactive) | 44.2 µM (inactive) | 85.5 µM (inactive) | > 100 µM (inactive) | > 100 µM (inactive) | 
COc1ccc(C(=O)C#Cc2cnc(O)nc2O)cc1 | 23.7 µM (inactive) | 6.03 µM (inactive) | 19.7 µM (inactive) | 21.4 µM (inactive) | > 42.2 µM (inactive) | 16.8 µM (inactive) | 8.81 µM (inactive) | 5.47 µM (inactive) | 7.33 µM (inactive) | 14 µM (inactive) | 7.46 µM (inactive) | 17.5 µM (inactive) | 23.8 µM (inactive) | 2.76 µM (inactive) | 5.69 µM (inactive) | 9.29 µM (inactive) | 11.9 µM (inactive) | 17.2 µM (inactive) |  | 
CN1C(=O)C(/C=N/NC(=O)c2cccnc2)C(N)N(C)C1=O (configuration not stated) |  | > 100 µM (inactive) | > 100 µM (inactive) |  | > 100 µM (inactive) | > 100 µM (inactive) | > 100 µM (inactive) | > 100 µM (inactive) |  | > 100 µM (inactive) | 35.3 µM (inactive) | > 100 µM (inactive) | > 100 µM (inactive) |  | > 100 µM (inactive) | > 100 µM (inactive) | > 100 µM (inactive) | > 100 µM (inactive) | > 100 µM (inactive) | > 100 µM (inactive)
CC[C@@]1(O)C(=O)OCc2c1cc1n(c2=O)Cc2cc3c(OC)cccc3nc2-1 | 0.6 µM (active) |  |  | 0.0432 µM (active) |  | 1.06 µM (active) |  | 0.308 µM (active) | < 0.1 µM (active) |  | 0.834 µM (active) | < 0.1 µM (active) | 0.0622 µM (active) | 0.1 µM (active) | 0.196 µM (active) |  | 0.558 µM (active) |  |  | 0.0194 µM (active)
O=C(/C=C/c1ccccc1Cl)c1cccc2ccccc12 | 14.4 µM (inactive) | 3.71 µM (inactive) | 14.3 µM (inactive) | 20.3 µM (inactive) | 15.3 µM (inactive) | 4.81 µM (inactive) | 1.97 µM (inactive) | 14 µM (inactive) | 10.8 µM (inactive) | 13.7 µM (inactive) | 18.4 µM (inactive) | 4.69 µM (inactive) | 6.97 µM (inactive) | 2.52 µM (inactive) | 1.88 µM (inactive) | 2.66 µM (inactive) | 18 µM (inactive) | 9.2 µM (inactive) |  | 
CCN(CC)CCCCC1CCN(CC(=O)N2c3ccccc3NC(=O)CC2C)CC1 (configuration not stated) | > 100 µM (inactive) | > 100 µM (inactive) | > 100 µM (inactive) | > 100 µM (inactive) | > 100 µM (inactive) | > 100 µM (inactive) | > 100 µM (inactive) | 76.7 µM (inactive) | > 100 µM (inactive) | > 100 µM (inactive) | > 100 µM (inactive) | > 100 µM (inactive) | > 100 µM (inactive) | 56.6 µM (inactive) | > 100 µM (inactive) | > 100 µM (inactive) | > 100 µM (inactive) | > 100 µM (inactive) |  | 
Cc1ccc(NC(S)=Nc2c(C)n(C)n(-c3ccccc3)c2=O)cc1 | > 100 µM (inactive) | > 100 µM (inactive) | > 100 µM (inactive) | > 100 µM (inactive) | > 100 µM (inactive) |  | > 100 µM (inactive) | > 100 µM (inactive) | > 100 µM (inactive) | > 100 µM (inactive) |  | > 100 µM (inactive) | > 100 µM (inactive) | > 100 µM (inactive) | > 100 µM (inactive) | > 100 µM (inactive) | > 100 µM (inactive) | > 100 µM (inactive) | > 100 µM (inactive) | 
COC(=O)CCC(C)C1CCC2C3C(C[C@H](OC(C)=O)[C@]12C)[C@@]1(C)CCC2(C[C@H]1C[C@H]3OC(C)=O)OOC1(CC[C@]3(C)C4C[C@H](OC(C)=O)[C@]5(C)C(C(C)CCC(=O)OC)CCC5C4[C@H](OC(C)=O)C[C@@H]3C1)OO2 (some centres not stated) |  | > 100 µM (inactive) | > 100 µM (inactive) |  | > 100 µM (inactive) | > 100 µM (inactive) | > 100 µM (inactive) | > 100 µM (inactive) |  | > 100 µM (inactive) | > 100 µM (inactive) | > 100 µM (inactive) | 68.4 µM (inactive) | 44.3 µM (inactive) | > 100 µM (inactive) | 45.1 µM (inactive) | > 100 µM (inactive) | 30.9 µM (inactive) | 73.1 µM (inactive) | 
CNC(=S)NN=C1NCCCN1 | > 100 µM (inactive) | > 100 µM (inactive) | > 100 µM (inactive) | > 100 µM (inactive) | > 100 µM (inactive) | > 100 µM (inactive) | > 100 µM (inactive) | > 100 µM (inactive) | > 100 µM (inactive) | > 100 µM (inactive) | > 100 µM (inactive) | > 100 µM (inactive) | > 100 µM (inactive) | > 100 µM (inactive) | > 100 µM (inactive) | > 100 µM (inactive) | > 100 µM (inactive) | > 100 µM (inactive) |  | > 100 µM (inactive)
CC1=NN(C(=O)CC(=O)N(C(=O)c2ccccc2Cl)c2ccc(C)cc2)C(=O)C1/N=N/c1ccc([N+](=O)[O-])cc1 (configuration not stated) | > 58.5 µM (inactive) | 17.7 µM (inactive) | 53.5 µM (inactive) | 36.6 µM (inactive) | 56.2 µM (inactive) | 67.9 µM (inactive) | 27.9 µM (inactive) | 23.4 µM (inactive) | 23.7 µM (inactive) | > 100 µM (inactive) | > 100 µM (inactive) | 53.1 µM (inactive) | > 43.6 µM (inactive) | > 100 µM (inactive) | > 39.2 µM (inactive) | 19.6 µM (inactive) | > 78.3 µM (inactive) | 44 µM (inactive) |  | 
CC(C)C(NC(=O)C(Cc1ccccc1)NC(=O)OC(C)(C)C)C(=O)NCC(=O)OCc1ccccc1 (stereo not drawn) (Boc-Phe-Val-Gly-OBn; configuration not given here) | 44.6 µM (inactive) | 23.7 µM (inactive) | 19.2 µM (inactive) |  | 14.7 µM (inactive) | 3.87 µM (inactive) | 19.5 µM (inactive) |  | 25.3 µM (inactive) | 16.3 µM (inactive) | 17.8 µM (inactive) | 25.6 µM (inactive) | 20.5 µM (inactive) |  | 14.3 µM (inactive) | 17.6 µM (inactive) | 20.4 µM (inactive) | 21.7 µM (inactive) | 14.3 µM (inactive) | 18.7 µM (inactive)
CC(C)=Nn1cnc(C(=N)C#N)c1N |  | > 100 µM (inactive) | > 100 µM (inactive) |  | > 100 µM (inactive) | > 100 µM (inactive) | > 100 µM (inactive) | > 100 µM (inactive) | > 100 µM (inactive) | > 100 µM (inactive) | > 100 µM (inactive) | > 100 µM (inactive) | 37.1 µM (inactive) | > 100 µM (inactive) | > 100 µM (inactive) | > 100 µM (inactive) | > 100 µM (inactive) | > 100 µM (inactive) | > 100 µM (inactive) | 
COc1ccc([C@@H]2CC(=O)NCCCCNCCCN2)cc1 | > 100 µM (inactive) | > 100 µM (inactive) | > 100 µM (inactive) | > 100 µM (inactive) | > 100 µM (inactive) | > 100 µM (inactive) | > 100 µM (inactive) | > 100 µM (inactive) | > 100 µM (inactive) | > 100 µM (inactive) | > 100 µM (inactive) | > 100 µM (inactive) | > 100 µM (inactive) | > 100 µM (inactive) | > 100 µM (inactive) | > 100 µM (inactive) | > 100 µM (inactive) | > 100 µM (inactive) |  | 
